Data published in US10988429B2, “Quinochalcone compound and uses thereof for treating cancer or inflammation” (CHON THERAPEUTICS INC., LTD., priority 2017, dated 2021).

Legend:
Kyn transporter PAT4 = assay: Expression of Kyn transporter PAT4 in activated human CD8+ T cells, quantitative PCR (Example 10); format: cell-based; conditions: activated CD8+ T cells of breast cancer patients; Kyn 200 μM with or without HB-48 10 μM; 48 hours
Method: (§1) Mononuclear cells were obtained from peripheral whole blood of patients with breast cancer using Ficoll. CD8+ T cells were sorted by magnetic beads and plated on 96-well U-shaped bottom plates (100,000 cells/well). T cells were activated by anti-CD3/CD28 magnetic beads. Media was RPMI-1640 plus 10 ng/mL human IL-2. Dosing by the following groups: • Control group 1 (PBS): medium and PBS. • Experimental group 2 (Kyn): Kyn 200 μM was added to the medium. • Experimental group 3 (Kyn+DMF): Kyn 200 μM and DMF 10 μM were added to the medium simultaneously. • Experimental group 4 (Kyn+HB-48): Kyn 200 μM and HB-48 10 μM were added to the medium simultaneously.
Each group of T cells RNA was extracted after 48 hours, and the expression of PAT4 was detected by fluorescence quantitative PCR.

[1] = tested on: A375, B16, MP-1, MCF-7, HL-60, K562 and ALL-1 cells; assay: 3D gel culture, number of colonies, HB-48 alone (Example 2); format: cell-based, human; mouse (B16); conditions: 3D culture; HB-48 1, 5, 10, 20 or 50 μmol/ml
Method: The following treatments were added to cultures of viable cells. • Control group 1 (Medium): RPMI-1640 medium supplemented with glutamine. • Experiment group1 (HB-48): HB-48 was added to cells at a final concentration of 1 μmol/ml, 5 μmol/ml, 10 μmol/ml, 20 μmol/ml, or 50 μmol/ml in Medium.
The day of drug treatment was recorded as day 0. […] The size of colonies in group control on day 2 is served as control.

[2] = tested on: inflammatory factors of macrophages derived from murine bone marrow; assay: Expression of inflammatory factors in bone marrow-derived macrophages, qPCR (Example 13); format: cell-based, mouse; conditions: HB-48 10 μM, 48 h
Method: Bone marrow-derived macrophages were obtained from mouse bone marrow cells, RPMI-1640 plus mouse M-CSF 20 ng/mL for 5 days and were treated as follows: • Control group 1 (PBS): medium plus PBS; • Experimental group 2 (HB-48): medium plus HB-48 at a dose of 10 μM. After 48 h, macrophages were collected and the expression of IFN-γ, TNF-α, IL-12p35, IL-12p40 and IL-2 was detected by qPCR in both groups.

[3] = tested on: OVA-B16 cells co-cultured with OT-1 CD8+ T cells; assay: Apoptosis of OVA-B16 co-cultured with pretreated OT-1 CD8+ T cells (Example 8); format: cell-based, mouse; conditions: T cells pretreated with HB-48 10 μM for 24 hours; co-culture ratio 1 to 10; 4 hours
Method: Spleen CD8+ T cells of OT-1 mice were obtained by magnetic bead sorting, seeded in a U-shaped bottom 96-well plate (100,000 cells/well) and treated as follows. • Control group 1 (PBS): medium plus PBS. • Experimental group 2 (DMF): DMF 10 μM was added to the medium. • Experimental group 3 (HB-48): HB-48 10 μM was added to the medium.
After pretreatment of T cells for 24 hours, 3D cultured OVA-B16 was co-cultured with OT-1 CD8+ T cells at a ratio of 1 to 10, and the apoptosis of OVA-B16 cells was detected by flow cytometry after 4 hours.

[4] = tested on: PD-1 expression in human peripheral blood CD8+ T cells; assay: PD-1 expression in peripheral blood CD8+ T cells of breast cancer patients (Example 10); format: cell-based; conditions: resting CD8+ T cells of breast cancer patients; HB-48 10 μM; 48 hours; compared with DMF 10 μM
Method: Mononuclear cells were obtained from peripheral blood of breast cancer patients using Ficoll. CD8+ T cells were sorted by magnetic beads and plated on U-bottom 96-well plates (100,000 cells/well) supplemented with RPMI-1640 supplemented with 10 ng/mL human IL-2. Dosing by the following groups: • Control group 1 (PBS): medium plus PBS. • Experimental group 2 (DMF): DMF 10 μM was added to the medium. • Experimental group 3 (HB-48): HB-48 10 μM was added to the medium.
(§2) PD-1 expression levels were measured by flow cytometry in each group of T cells at 48 hours.

mice melanoma B16 cells = assay: B16 tumor-bearing C57 mice, HB-48 versus DMF (Example 3); format: in vivo, mouse; conditions: intratumor injection 5 mg/kg every two days for 10 days
Method: Establishment of tumor-bearing mice model: 1×10^5 mice melanoma B16 cells were transplanted into 4˜6 weeks old C57BL/C mice (C57 mice). The weight of each mouse was about 20 g. Tumors were visible on day 7. Mice were treated as follows when the tumor sizes were 5 mm×5 mm. • Control group 1 (PBS): Intratumor injection with PBS. • Experiment group 2 (HB-48): Intratumor injection with HB-48 at 5 mg/kg every two days for 10 days. • Experiment group 3 (DMF): Intratumor injection with DMF with 5 mg/kg every two days for 10 days.
Tumor sizes were recorded daily.

[5] = tested on: PD-1 expression in mouse CD8+ T cells; assay: PD-1 expression on activated mouse CD8+ T cells, flow cytometry (Example 8); format: cell-based; conditions: mouse spleen CD8+ T cells activated by anti-CD3/CD28 beads; Kyn 200 μM and HB-48 10 μM; 48 hours
Method: Mouse spleen CD8+ T cells were sorted by magnetic beads and seeded in U-bottom 96-well plates (100,000/well) and T cells were activated by anti-CD3/CD28 magnetic beads. The medium was RPMI-1640 plus 10 ng/Mouse IL-2 and […] β-mercaptoethanol. Treatment and dosing is described below: • Control group 1 (PBS): Medium and PBS; • Experimental group 2 (Kyn): Kyn 200 μM was added to the Medium. • Experimental group 3 (Kyn+DMF): Kyn 200 μM and DMF 10 μM were added to the Medium simultaneously. • Experimental group 4 (Kyn+HB-48): Kyn 200 μM and HB-48 10 μM were added to the Medium simultaneously.
as §2

[6] = tested on: PD-1 expression in human activated CD8+ T cells; assay: Kyn-mediated PD-1 upregulation in activated peripheral blood CD8+ T cells of breast cancer patients (Example 10); format: cell-based; conditions: Kyn 200 μM and HB-48 10 μM, 48 hours, compared with DMF 10 μM
Method: as §1, §2

OVA-B16 melanoma cells = assay: OVA-B16 tumor-bearing C57BL/6 mice, adoptive CD8+ T cells and HB-48 (Example 9); format: in vivo, mouse; conditions: HB-48 intratumoral 5 mg/kg every two days, 10 times, OT-1 T cells 4×10^6 i.v. every 5 days, 3 times
Method: Tumor-bearing mice were constructed: OVA-B16 melanoma cells were seeded on C57BL/6 mice (inoculation amount of 1×10^5 cells) for 4-6 weeks. […] When the tumor size reached 5 mm×5 mm, tumor-bearing mice were treated as follows: • Control group 1 (PBS): Intratumoral injection of PBS only. • Experimental group 2 (CD8+ T cells): Tumor bearing mice were intravenously adoptively transferred with 4×10^6 OVA-specific CD8^+ T-cells (OT-1 T-cells) once every 5 days for 3 times. • Experimental group 3 (DMF): Tumor-bearing mice were intratumorally injected with DMF every two days, a total of 10 times, each dose of 5 mg/kg. • Experimental group 4 (HB-48): Tumor-bearing mice were intratumorally injected with HB-48 every two days, a total of 10 times, each dose of 5 mg/kg. • Experimental group 5 (CD8+ T and DMF): Tumor-bearing mice were intravenously transferred with OT-1 T cells every 5 days for 3 times, and intratumorally injected with DMF every two days for 10 times at the same time. • Experimental group 6 (CD8+ T and HB-48): Tumor-bearing mice were intravenously transfered with OT-1 T cells every 5 days for 3 times, and intratumorally injected with HB-48 every two days for 10 times at the same time.
Tumor length and width were measured daily, and tumor volume changes were calculated.

[7] = tested on: A375, B16, MP-1, MCF-7, HL-60, K562 and ALL-1 cells; assay: 3D gel culture, clone size, HB-48 alone (Example 1); format: cell-based, human; mouse (B16); conditions: 3D culture; HB-48 1, 5, 10, 20 or 50 μmol/ml; 48 and 96 hours
Method: 3D gel technology involves culturing cells in a gel-like matrix. Studies in our lab have shown that cancer cells grown using 3D technology behave more like cancers found in vivo, as cancer cells grown using 3D technology display strong proliferative ability, higher drug resistance, stronger tumorigenicity and greater far-end invasion transfer ability than cancer cells cultured using traditional methods. The following treatments were added to 3D cultures of viable cells. • Control group 1 (Medium): RPMI-1640 medium supplemented with glutamine. • Experiment group1 (HB-48): HB-48 was added to cells at a final concentration of 1 μmol/ml, 5 μmol/ml, 10 μmol/ml, 20 μmol/ml, or 50 μmol/ml in Medium.
Dosing drugs was recorded as day 0. Clone size was determined by taking photographic images 48 and 96 hours after dosing. ImageJ software was used to analyze the size of the clones. The clone sizes in different groups were normalized to the control group on the second day.

Row | Compound | expression of PAT4 in peripheral blood CD8+ T cells (Kyn transporter PAT4) | colony numbers of solid tumor cells and leukemia cells [1] | expression of IFN-γ [2] | expression of IL-1β [2] | expression of IL-12p35 [2] | expression of IL-12p40 [2] | expression of TNF-α [2] | percentage of apoptosis of OVA-B16 tumor cells [3] | PD-1 expression in peripheral blood CD8+ T cells [4] | tumor growth (tumor volume) (mice melanoma B16 cells) | Kyn-mediated upregulation of PD-1 in CD8+ T cells [5] | Kyn-mediated upregulation of PD-1 in peripheral blood CD8+ T cells [6] | therapeutic effect (tumor volume) (OVA-B16 melanoma cells) | growth (relative clone size) of solid tumor and leukemia cells [7]
1 | Nc1ccccc1C(=O)CC(N)C(=O)O (stereo not shown) [Kyn, Kynurenine, reference compound] | can up-regulate the expression of its transporter PAT4 | – | – | – | – | – | – | – | – | – | – | – | – | –
2 | COCOC1=CC(=O)/C(=C(O)/C=C/c2ccc(OCOC)cc2)C(=O)C1(CC=C(C)C)CC=C(C)C [HB-48, 2-[1-hydroxy-3-(4-methoxymethoxyphenyl)allylidene]-5-methoxymethoxy-6,6-diprenylcyclohex-4-ene-1,3-dione] | can down-regulate the expression of PAT4 | effectively reduced the colony numbers of solid tumor cells and leukemia cells in a dose dependent manner | significantly reduced | significantly reduced | significantly reduced | significantly reduced | significantly reduced | significantly increased | more effectively down-regulated PD-1 expression | shows a significant enhanced anticancer effect | inhibited Kyn-mediated upregulation of PD-1 in CD8+ T cells more effectively than DMF | inhibited Kyn-mediated upregulation of PD-1 | had a certain therapeutic effect | significantly inhibited the growth of solid tumor and leukemia cells in a concentration-dependent manner
3 | COc1ccc(-c2cc(=O)c3ccccc3o2)cc1OC [DMF, 3′,4′-Dimethoxyflavone, reference compound] | – | – | – | – | – | – | – | – | – | could inhibit the tumor growth | – | – | – | –
